Reference: ChEMBL document CHEMBL1132641, “Structure-activity relationships for a class of inhibitors of purine nucleoside phosphorylase” (J Med Chem, 1999)
Each block holds one molecule with its values, some of them ahead of it.

Key:
Test in all cases: biochemical
[1] = target: T1, Purine nucleoside phosphorylase (Bos taurus, UniProt P55859)
T1 sequence (P55859 whole entry): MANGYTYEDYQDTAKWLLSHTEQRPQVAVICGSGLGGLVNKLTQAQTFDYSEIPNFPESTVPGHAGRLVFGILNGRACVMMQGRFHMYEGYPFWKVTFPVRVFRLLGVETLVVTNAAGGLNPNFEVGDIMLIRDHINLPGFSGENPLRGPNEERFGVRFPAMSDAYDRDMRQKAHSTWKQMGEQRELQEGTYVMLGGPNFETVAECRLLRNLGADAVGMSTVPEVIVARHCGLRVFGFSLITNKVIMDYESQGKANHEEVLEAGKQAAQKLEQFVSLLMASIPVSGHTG
Description: (§1) Inhibitory activity against calf spleen purine nucleoside phosphorylase (PNP) using inosine as substrate at a concentration of 10 uM.

[2] = target: T1, Purine nucleoside phosphorylase; remark: listed apart in the source
Description: as §1

[3] = target: T1, Purine nucleoside phosphorylase; remark: listed apart in the source
Description: Inhibitory activity against calf spleen purine nucleoside phosphorylase (PNP) using 2-amino-6-mercapto-7-methyl purine ribonucleoside (MESG) as substrate.

Structure (SMILES): Cc1nc2c(O)[nH]c(N)nc-2c1Cc1ccccc1
IC50 [1]: 20.2 µM
Ki [2]: 10.3 µM
Ki [3]: 67.5 µM

Structure (SMILES): Nc1nc(O)c2[nH]cc(C3=CCCCC3)c2n1
IC50 [1]: 1.97 µM
Ki [2]: 0.862 µM
Ki [3]: 0.5 µM

Structure (SMILES): N#CCC(c1cccnc1)c1cnc2c(O)[nH]cnc1-2 (centres undefined)
IC50 [1]: 0.0389 µM

Structure (SMILES): Nc1nc2c(CC3CCCS3)c[nH]c2c(=O)[nH]1 (centres undefined)
IC50 [1]: 0.0174 µM
Ki [2]: 0.0085 µM
Ki [3]: 0.006 µM

Structure (SMILES): N#CCC(c1cccc(Cl)c1)c1c[nH]c2c(=O)[nH]c(N)nc12 (centres undefined)
IC50 [1]: 0.0163 µM
Ki [3]: 0.0046 µM

Structure (SMILES): Nc1nc2c(Cc3ccc(-c4ccccc4)cc3)c[nH]c2c(=O)[nH]1
IC50 [1]: 0.546 µM

Structure (SMILES): Nc1nc2c(Cc3ccncc3)c[nH]c2c(=O)[nH]1
IC50 [1]: 0.0635 µM
Ki [2]: 0.0254 µM
Ki [3]: 0.0169 µM

Structure (SMILES): Nc1nc2c(Cc3cnccc3Cl)c[nH]c2c(=O)[nH]1
IC50 [1]: 0.135 µM
Ki [2]: 0.0667 µM
Ki [3]: 0.0356 µM

Structure (SMILES): Nc1nc2c(Cc3ccc(OCc4ccccc4)cc3)c[nH]c2c(=O)[nH]1
IC50 [1]: 0.124 µM
Ki [2]: 0.0378 µM
Ki [3]: 0.0203 µM

Structure (SMILES): Nc1nc(O)c2nc(N)n(Cc3cccs3)c2n1
IC50 [1]: 0.0694 µM
Ki [2]: 0.0357 µM
Ki [3]: 0.0207 µM

Structure (SMILES): Nc1nc(O)c2[nH]cc(Oc3ccccc3)c2n1
IC50 [1]: 0.0415 µM

Structure (SMILES): Nc1nc2c(CC3CCCC3)c[nH]c2c(=O)[nH]1
IC50 [1]: 0.0202 µM
Ki [2]: 0.0091 µM
Ki [3]: 0.0062 µM

Structure (SMILES): Oc1ncn(Cc2ccccc2)c2ncnc1-2
IC50 [1]: 49.6 µM
Ki [2]: 24.6 µM

Structure (SMILES): CC1CCCC(Cc2c[nH]c3c(=O)[nH]c(N)nc23)C1 (centres undefined)
IC50 [1]: 0.0192 µM
Ki [2]: 0.0114 µM
Ki [3]: 0.0033 µM

Structure (SMILES): Nc1nc2c(Cc3ccccn3)c[nH]c2c(=O)[nH]1
IC50 [1]: 0.0153 µM

Structure (SMILES): Oc1[nH]cnc2c(Cc3ccccc3)cnc1-2
IC50 [1]: 0.0245 µM
Ki [2]: 0.0187 µM
Ki [3]: 0.0054 µM

Structure (SMILES): Nc1nc2c(Cc3cccnc3)c[nH]c2c(=O)[nH]1 [PELDESINE]
IC50 [1]: 0.027 µM
Ki [2]: 0.0135 µM
Ki [3]: 0.0031 µM

Structure (SMILES): Nc1nc2[nH]c(N)nc2c(=O)[nH]1 [8-AMINOGUANINE]
IC50 [1]: 2.3 µM
Ki [2]: 0.982 µM
Ki [3]: 0.681 µM

The next lines start with the values.

IC50 [1]: 0.103 µM
Ki [2]: 0.065 µM
Ki [3]: 0.0144 µM
Structure (SMILES): Nc1nc(O)c2[nH]cc(Cc3ccccc3Cl)c2n1

IC50 [1]: 0.239 µM
Ki [2]: 0.109 µM
Ki [3]: 0.035 µM
Structure (SMILES): Nc1nc(O)c2[nH]cc(Cc3ccc(O)cc3)c2n1

IC50 [1]: 0.0226 µM
Ki [2]: 0.0156 µM
Ki [3]: 0.0035 µM
Structure (SMILES): Nc1nc(O)c2[nH]cc(Cc3ccsc3)c2n1

IC50 [1]: 0.0966 µM
Structure (SMILES): CC(C)c1ccc(Cc2c[nH]c3c(=O)[nH]c(N)nc23)cc1

IC50 [1]: 0.0468 µM
Ki [2]: 0.009 µM
Ki [3]: 0.061 µM
Structure (SMILES): Nc1nc(O)c2[nH]cc(C(CC(=O)O)c3ccccc3)c2n1 (centres undefined)

IC50 [1]: 0.182 µM
Ki [2]: 0.084 µM
Ki [3]: 0.0318 µM
Structure (SMILES): Nc1nc2c(Cc3ccccc3O)c[nH]c2c(=O)[nH]1

IC50 [1]: 1.47 µM
Ki [2]: 0.885 µM
Ki [3]: 0.766 µM
Structure (SMILES): Nc1nc(O)c2[nH]c(N)c(CC3CCCCC3)c2n1

IC50 [1]: 0.64 µM
Ki [2]: 0.335 µM
Ki [3]: 0.333 µM
Structure (SMILES): Nc1nc(O)c2[nH]cc(C3CCCCC3)c2n1

IC50 [1]: 0.0258 µM
Ki [2]: 0.0189 µM
Ki [3]: 0.0043 µM
Structure (SMILES): Nc1nc2c(Cc3cccc(Cl)c3)c[nH]c2c(=O)[nH]1
